Data as given in PubChem BioAssay AID256 (DTP/NCI, 2004).
Inconclusive results and toxic doses are left out. The calls were made as follows: active = survival T/C of 150% or more; inactive = T/C below 125% in these data.

System: CD2F1 mice, L1210 leukemia ip, survival T/C
Test: NCI In Vivo Anticancer Drug Screen. Data for tumor model L1210 Leukemia (intraperitoneal) in CD2F1 (CDF1) mice
Conditions: endpoint: mean survival time, higher = longer survival
Procedure, shortened: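 Activity against a transplanted murine tumor was judged by comparing the compound group with a vehicle group. The outcome in the treated animals was divided by that in the controls.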

[1] = dose: 25.0 mg/kg/injection, schedule: Q01DX009 (ip), vehicle: saline with Tween-80
[2] = dose: 50.0 mg/kg/injection, schedule: Q01DX009 (ip), vehicle: saline with Tween-80
[3] = dose: 100.0 mg/kg/injection, schedule: Q04DX003 (ip), vehicle: saline with Tween-80
[4] = dose: 200.0 mg/kg/injection, schedule: Q04DX003 (ip), vehicle: saline with Tween-80
[5] = dose: 400.0 mg/kg/injection, schedule: Q04DX003 (ip), vehicle: saline with Tween-80

Measured: T/C

CCN(CC)c1nc2c(c(=O)n(C)c(=O)n2C)n1CCCNCC(O)c1ccc(O)c(O)c1 (configuration not stated)
inactive: dose: 12.5 mg/kg/injection, schedule: Q01DX005 (ip), vehicle: distilled water + Tween-80 96 % of control | dose: 25.0 mg/kg/injection, schedule: Q01DX005 (ip), vehicle: distilled water + Tween-80 103 % of control | dose: 50.0 mg/kg/injection, schedule: Q01DX005 (ip), vehicle: distilled water + Tween-80 97 % of control | dose: 100.0 mg/kg/injection, schedule: Q01DX005 (ip), vehicle: distilled water + Tween-80 105 % of control | dose: 200.0 mg/kg/injection, schedule: Q01DX005 (ip), vehicle: distilled water + Tween-80 100 % of control

Cc1nc(N)[nH]c(=O)c1NC(=O)c1ccc(N=[N+]=[N-])cc1
inactive: dose: 12.5 mg/kg/injection, schedule: Q01DX001 (ip), vehicle: saline with Tween-80 90 % of control | dose: 12.5 mg/kg/injection, schedule: Q01DX009 (ip), vehicle: saline with Tween-80 89 % of control | dose: 12.5 mg/kg/injection, schedule: Q04DX003 (ip), vehicle: saline with Tween-80 97 % of control | dose: 25.0 mg/kg/injection, schedule: Q01DX001 (ip), vehicle: saline with Tween-80 95 % of control | [1] 94 % of control | dose: 25.0 mg/kg/injection, schedule: Q04DX003 (ip), vehicle: saline with Tween-80 97 % of control | dose: 50.0 mg/kg/injection, schedule: Q01DX001 (ip), vehicle: saline with Tween-80 94 % of control | [2] 91 % of control | dose: 50.0 mg/kg/injection, schedule: Q04DX003 (ip), vehicle: saline with Tween-80 96 % of control

Cc1nc(-c2ccccc2)[nH]c(=O)c1CCO
inactive: [3] 100 % of control | [4] 100 % of control | [5] 111 % of control

C=CCc1cc(OC)ccc1OC(C)=O
inactive: [3] 113 % of control | [4] 97 % of control | [5] 105 % of control

CCSC1=[N+](SCC)CCCS1
inactive: dose: 75.0 mg/kg/injection, schedule: Q01DX001 (ip), vehicle: saline 103 % of control

CCCCN(Cl)CCCC
inactive: dose: 25.0 mg/kg/injection, schedule: Q04DX002 (ip), vehicle: saline with Tween-80 92 % of control | dose: 50.0 mg/kg/injection, schedule: Q04DX002 (ip), vehicle: saline with Tween-80 92 % of control | dose: 100.0 mg/kg/injection, schedule: Q04DX002 (ip), vehicle: saline with Tween-80 103 % of control

CN1CCc2cc3c(cc2C(=O)Cc2ccc4c(c2C1)OCO4)OCO3
inactive: [1] 98 % of control | [2] 101 % of control | dose: 100.0 mg/kg/injection, schedule: Q01DX009 (ip), vehicle: saline with Tween-80 103 % of control

CN=[N+]([O-])C1(OC(C)=O)CCCC1
inactive: dose: 50.0 mg/kg/injection, schedule: Q01DX001 (ip), vehicle: saline 110 % of control | dose: 100.0 mg/kg/injection, schedule: Q01DX001 (ip), vehicle: saline 117 % of control

Oc1ccccc1N=Cc1ccccc1
inactive: dose: 100.0 mg/kg/injection, schedule: Q04DX003 (ip), vehicle: saline 102 % of control | dose: 200.0 mg/kg/injection, schedule: Q04DX003 (ip), vehicle: saline 100 % of control | dose: 400.0 mg/kg/injection, schedule: Q04DX003 (ip), vehicle: saline 101 % of control
